Reference: US20250162988A1, “CRYSTALS OF VITAMIN D DERIVATIVE OR CRYSTALS OF SOLVATE THEREOF” (TEIJIN PHARMA LIMITED, priority 2022, published 2025)

Key:
[1] = in vivo; cited from earlier work
[2] = Evaluation of brain penetration in mice (single oral dose, plasma and brain level by LC/MS/MS); assay type: in vivo, C57BL/6J mice; conditions: mean ± S.D.
Protocol: The administration solution was administered orally to C57BL/6J mice (8 weeks old, male, n=3) at a single dose (1 mg/kg). Mice were euthanized at 6 points of 0.25, 0.5, 1, 2, 4, and 8 hours after administration, and plasma and brain sampling were performed. After preparing a homogenate from the collected brain using Tissue Lyser II (QIAGEN #85300), acetonitrile was added to the homogenate and the homogenate was centrifuged (TOMY DIGITAL BIOLOGY MX-307, 12000 rpm, 5 minutes) to extract the administered test compound contained in the brain. Similarly, the plasma was subjected to addition of acetonitrile and centrifugal separation to extract the administered test compound contained in the plasma. Each extracted sample was subjected to measurement of the concentration of administered test compound using LC/MS/MS (SHIMADZU UFLC/MS/MS (8050)).
The administration solution was administered orally to C57BL/6J mice (8 weeks old, male, n=3) at a single dose (0.2 mg/kg). Mice were euthanized at 6 points of 0.25, 0.5, 1, 2, 4, and 8 hours after administration, and plasma and brain sampling were performed. After preparing a homogenate from the collected brain using Tissue Lyser II (QIAGEN #85300), acetonitrile was added to the homogenate and the homogenate was centrifuged (TOMY DIGITAL BIOLOGY MX-307, 12000 rpm, 5 minutes) to extract the administered compound contained in the brain. Similarly, the plasma was subjected to addition of acetonitrile and centrifugal separation to extract the administered test compound contained in the plasma. Each extracted sample was subjected to measurement of the concentration of administered test compound using LC/MS/MS (SHIMADZU UFLC/MS/MS (8050)).

[3] = test system: rat oligodendrocyte progenitor cells; test: Promotive activity of rat oligodendrocyte progenitor cell differentiation (MBP immunostaining); assay type: cell-based, SD rats; conditions: vitamin D derivative 2 μM, T3 30 nM, cultured for 4 days
Protocol: The promotive activity of oligodendrocyte progenitor cell (OPC) differentiation of the vitamin D derivatives was evaluated by immunostaining of myelin basic protein (MBP).
Subsequently, oligodendrocyte progenitor cell separation medium was added to the flask, and the mixture was similarly shaken for about 22 hours (37° C., 200 rpm), and the supernatant was collected to prepare oligodendrocyte progenitor cells.
After cell seeding, a solution of the test compound or a solution prepared from DMSO with a differentiation medium were added to the cells such that the DMSO concentration in the wells was 0.1%. The cells were cultured for 4 days.

[4] = Test 1, 1 mg/kg single oral dose

| SMILES | Brain level at the time of brain Cmax [2, 4] [pmol/g] | Average value (mean) of the ratio (the number of MBP-positive cells/the number of Hoechst33342-positive cells) ([3]; Test 1) | further results |
| --- | --- | --- | --- |
| C=C1/C(=C\C=C2/CCC[C@]3(C)[C@@H]([C@H](C)CCCC(C)(C)O)CC[C@@H]23)C[C@@H](O)C[C@@H]1O [1α,25-dihydroxyvitamin D3] |  |  | ratio of concentration in brain/concentration in blood [1]: 0.007±0.003 |
| C[C@H](CN1CC[C@H](C(F)F)C1)[C@H]1CC[C@H]2/C(=C/C=C3C[C@@H](O)C[C@H](O)C3)CCC[C@]12C [Compound (A), (1R,3R)-5-(2-((1R,3aS,7aR,E)-1-((S)-1-((S)-3-(difluoromethyl)pyrrolidin-1-yl)propan-2-yl)-7a-methyloctahydro-4H-inden-4-ylidene)ethylidene)cyclohexane-1,3-diol] | 529 ± 53 | 0.47 |  |
| C[C@H](CN1CC[C@@H](C(F)F)C1)[C@H]1CC[C@H]2/C(=C/C=C3C[C@@H](O)C[C@H](O)C3)CCC[C@]12C [Compound (B), (1R,3R)-5-(2-((1R,3aS,7aR,E)-1-((S)-1-((R)-3-(difluoromethyl)pyrrolidin-1-yl)propan-2-yl)-7a-methyloctahydro-4H-inden-4-ylidene)ethylidene)cyclohexane-1,3-diol] | 384 ± 40 | 0.38 |  |
| C[C@H](CN1CC[C@@H](C(C)(F)F)C1)[C@H]1CC[C@H]2/C(=C/C=C3C[C@@H](O)C[C@H](O)C3)CCC[C@]12C [Compound (C), (1R,3R)-5-(2-((1R,3aS,7aR,E)-1-((S)-1-((R)-3-(1,1-difluoroethyl)pyrrolidin-1-yl)propan-2-yl)-7a-methyloctahydro-4H-inden-4-ylidene)ethylidene)cyclohexane-1,3-diol] | 562 ± 50 | 0.57 |  |
| C[C@H](CN1CC[C@@H](CC(F)F)C1)[C@H]1CC[C@H]2/C(=C/C=C3C[C@@H](O)C[C@H](O)C3)CCC[C@]12C [Compound (D), (1R,3R)-5-(2-((1R,3aS,7aR,E)-1-((S)-1-((S)-3-(2,2-difluoroethyl)pyrrolidin-1-yl)propan-2-yl)-7a-methyloctahydro-4H-inden-4-ylidene)ethylidene)cyclohexane-1,3-diol] | 80 ± 9 |  | Average value (mean) of the ratio (the number of MBP-positive cells/the number of Hoechst33342-positive cells) ([3]; Test 2): 0.53 |
| C[C@H](CCN1CCOCC1)[C@H]1CC[C@H]2/C(=C/C=C3C[C@@H](O)C[C@H](O)C3)CCC[C@]12C [Compound (E), (1R,3R)-5-(2-((1R,3aS,7aR,E)-7a-methyl-1-((R)-4-morpholinobutane-2-yl)octahydro-4H-inden-4-ylidene)ethylidene)cyclohexane-1,3-diol] | 595 ± 23 |  | Average value (mean) of the ratio (the number of MBP-positive cells/the number of Hoechst33342-positive cells) ([3]; Test 2): 0.36 |
| C[C@H](CN1CCOCC1(C)C)[C@H]1CC[C@H]2/C(=C/C=C3C[C@@H](O)C[C@H](O)C3)CCC[C@]12C [Compound (F), (1R,3R)-5-(2-((1R,3aS,7aR,E)-1-((S)-1-(3,3-dimethylmorpholino)propan-2-yl)-7a-methyloctahydro-4H-inden-4-ylidene)ethylidene)cyclohexane-1,3-diol] |  |  | Brain level at the time of brain Cmax ([2]; Test 2, 0.2 mg/kg single oral dose): 137.8 ± 11.5 pmol/g; Average value (mean) of the ratio (the number of MBP-positive cells/the number of Hoechst33342-positive cells) ([3]; Test 3): 0.50 |
